Data published in patent US12612412B2, “Antiviral heterocyclic compounds” (Enanta Pharmaceuticals, Inc., priority 2021, dated 2026).
pEC50: −log10 of the molar value.

These compounds were tested on genotype A, "Long" strain RSV (assay: RSV-A assay (CPE protection in Hep-2 cells, ATPlite readout)). Details: human respiratory syncytial virus, RSV-A Long strain, MOI 0.1, CPE protection, read-out: Human RSV-A (“Long”) EC50.
Assay type: cell-based, Human respiratory syncytial virus (HRSV)
In short: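 ATPlite luminescence (cellular ATP) served as the measure of cell health after 5 days of infection. Hep-2 cells at 8,000 per well received duplicate 2-fold compound dilutions plus virus at MOI 0.1, and EC50 was calculated from CPE protection.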

Row | pEC50 | Compound
1 | < 6.70 | COc1cc(C(=O)NC[C@](O)(c2cc3c(c(-c4ccc(C5(C#N)CC5)cc4)n2)OC[C@]3(C)C(N)=O)C(F)(F)F)cc2cn(C3CC3)nc12 [Example 981]
2 | > 6.70 | COc1cc(C(=O)NC[C@](O)(c2cc3c(c(-c4cccc5c4OC(F)(F)O5)n2)OC[C@]3(C)C(N)=O)C(F)(F)F)cc2cn(C3CC3)nc12 [Example 928]
3 | > 6.70 | COc1cc(C(=O)NC[C@](O)(c2nc(-c3ccc4c(c3)OC(F)(F)O4)c3c(c2F)[C@@](C)(C(N)=O)CO3)C2CC2)cc2cc(Cl)c(C)nc12 [Example 861]
4 | > 6.70 | COc1cc(C(=O)NC[C@](O)(c2cc3c(c(-c4ccc(OC5CC5)cc4)n2)OC[C@]3(C)C(N)=O)C(F)(F)F)cc2cn(C3CC3)nc12 [Example 976]

Same assay, conditions: human respiratory syncytial virus, genotype A “Long” strain RSV, MOI 0.1, CPE protection, read-out: Human RSV-A (“Long”)

Row | pEC50 | Compound
5 | > 6.70 | COc1cc(C(=O)NC[C@](O)(c2cc3c(c(-c4ccc(F)c(Cl)c4)n2)OC[C@]3(C)C(N)=O)C2CC2)cc2sc(C)nc12 [Example 722]
6 | > 6.70 | Cc1cnc2c(OC(F)F)cc(C(=O)NC[C@](O)(c3cc4c(c(-c5ccc(F)cc5Cl)n3)OC[C@]4(C)C(N)=O)C3(F)CC3)cc2c1 [Example 733]
7 | > 6.70 | C[C@]1(C(N)=O)COc2c1cc([C@@](O)(CNC(=O)c1cc(OC3CC3)n3nc(C4CC4)cc3c1)C1CC1)nc2-c1ccc2c(c1)OC(F)(F)O2 [Example 822]

The compounds below were run on HMPV clinical isolate TN/1501/A1 (assay: HMPV antiviral assay Method-B (clinical isolate TN/1501/A1 in LLC-MK2 cells, ATP-Lite readout)). Details: human metapneumovirus, LLC-MK2, 144 h, hMPV WT1501 (clinical isolate TN/1501/A1), 6 days.
Assay type: cell-based, Human metapneumovirus (HMPV)
Method: In vitro HMPV antiviral activity was evaluated using the clinical isolate TN/1501/A1 and LLC-MK2 cells (ATCC #CCL-7), an immortalized kidney epithelial cell line from Macaca mulatta. Compounds were resuspended in dimethyl sulfoxide (DMSO) at 10 mM and added to a 384-well source plate. The compounds were diluted and transferred onto 384-well assay plates using the Echo-650 automated liquid handling system (Beckman Coulter, Indiana). The test compounds were assessed in duplicate at a top concentration of 10 μM followed by 3-fold serial dilutions to give a total of 10 concentration points. DMSO control wells were also included on the assay plates and were either infected or not, acting as positive and negative controls. TN/1501/A1 virus infections were performed in-suspension with LLC-MK2 cells. The cells were washed twice with PBS and removed from the cell-culture flask with 0.25% trypsin-EDTA (Thermo Fisher Scientific, MA). The trypsin-EDTA was inactivated by resuspending in 2% fetal bovine serum (FBS) and OptiMEM (ThermoFisher Scientific, MA) containing 1% penicillin-streptomycin. Cells were pelleted by centrifuging for 5 minutes at 800 rpm, the supernatant was removed, and cells were suspended in PBS plus 100 μg/mL CaCl2). This step was performed twice. Cells were then resuspended in serum-free (SF)-OptiMEM containing 4 μg/mL TPCK-Trypsin (Sigma Aldrich, MO), 1% penicillin-streptomycin (ThermoFisher Scientific, MA) and 100 μg/mL CaCl2). Cells were counted and seeded at a density of 5,000 cells/well, 12.5 μL/well. Virus infections were done at a multiplicity of infection (MOI) of 0.014 with 12.5 μL added per well. SF-OptiMEM, 12.5 μL/well, was added to the appropriate wells to serve as a virus-free negative control for the assay. The final concentration of TPCK-trypsin was 2 μg/mL. Plates were incubated at 37° C., 5% CO2 for 6 days. After 6 days incubation, 12.5 μL of ATP-Lite (PerkinElmer, MA) was added to each well and the raw luminescence values were determined using the Envision 2104 (Perkin Elmer, MA). The average of the raw luminescence values for the cells and virus only positive control wells was subtracted from all conditions tested and the percent cell health was determined by dividing these values by the average of the cells only negative control wells. EC50 values were then calculated by non-linear regression using a four-parameter curve logistic equation. The curve fit model employed was XLFit Dose Response One Site Model 200: y=(A+(B/(1+((x/C)^D)))), where A is the minimum y value, B is the maximum y value, C is the log EC50 value, and D is the slope factor. […] EC50 ranges are as follows: A<0.5 μM; B>0.5 μM.

Row | pEC50 | Compound
8 | < 6.30 | COc1cc(C(=O)NC[C@](O)(c2cc3c(c(-c4ccc(C5(C#N)CC5)cc4)n2)OC[C@]3(C)C(N)=O)C(F)(F)F)cc2cn(C3CC3)nc12 [Example 981]
9 | < 6.30 | COc1cc(C(=O)NC[C@](O)(c2cc3c(c(-c4cccc5c4OC(F)(F)O5)n2)OC[C@]3(C)C(N)=O)C(F)(F)F)cc2cn(C3CC3)nc12 [Example 928]
10 | > 6.30 | COc1cc(C(=O)NC[C@](O)(c2nc(-c3ccc4c(c3)OC(F)(F)O4)c3c(c2F)[C@@](C)(C(N)=O)CO3)C2CC2)cc2cc(Cl)c(C)nc12 [Example 861]
11 | > 6.30 | COc1cc(C(=O)NC[C@](O)(c2cc3c(c(-c4ccc(F)c(Cl)c4)n2)OC[C@]3(C)C(N)=O)C2CC2)cc2sc(C)nc12 [Example 722]
12 | > 6.30 | Cc1cnc2c(OC(F)F)cc(C(=O)NC[C@](O)(c3cc4c(c(-c5ccc(F)cc5Cl)n3)OC[C@]4(C)C(N)=O)C3(F)CC3)cc2c1 [Example 733]
13 | < 6.30 | COc1cc(C(=O)NC[C@](O)(c2cc3c(c(-c4ccc(OC5CC5)cc4)n2)OC[C@]3(C)C(N)=O)C(F)(F)F)cc2cn(C3CC3)nc12 [Example 976]
14 | > 6.30 | C[C@]1(C(N)=O)COc2c1cc([C@@](O)(CNC(=O)c1cc(OC3CC3)n3nc(C4CC4)cc3c1)C1CC1)nc2-c1ccc2c(c1)OC(F)(F)O2 [Example 822]
15 | < 6.30 | Cc1cnc2c(Cl)cc(C(=O)NC[C@](O)(c3cc4c(c(-c5cc(Cl)c(F)c(Cl)c5)n3)OC[C@]4(C)C(N)=O)C3CC3)cc2c1 [Example 682]
16 | > 6.30 | COc1cc(C(=O)NC[C@](O)(c2cc3c(c(-c4csc5c(F)cccc45)n2)OC[C@]3(C)C(N)=O)C2(F)CC2)cc2cn(C3(F)CC3)nc12 [Example 629]
17 | > 6.30 | COc1cc(C(=O)NC[C@](O)(c2cc3c(c(-c4ccc(F)cc4)n2)OC[C@]3(C)C(N)=O)C(F)(F)F)cc2cc(Br)c(C)nc12 [Example 769]
18 | < 6.30 | COc1cc(C(=O)NC[C@](O)(c2nc(-c3ccc4c(c3)OC(F)(F)O4)c3c(c2F)[C@](C)(C(N)=O)CO3)C2CC2)cc2cn(C3(F)CC3)nc12 [Example 865]
19 | > 6.30 | COc1cc(C(=O)NC[C@](O)(c2cc3c(c(-c4ccc(Cl)c(F)c4F)n2)OC[C@]3(C)C(N)=O)C2CC2)cc2cc(Br)cnc12 [Example 689]
20 | > 6.30 | COc1cc(C(=O)NC[C@](O)(c2cc3c(c(-c4ccc(F)c(Br)c4F)n2)OC[C@]3(C)C(N)=O)C2CC2)cc2cc(Cl)c(C)nc12 [Example 804]
21 | > 6.30 | COc1cc(C(=O)NC[C@](O)(c2cc3c(c(-c4ccc(F)c(Br)c4F)n2)OC[C@]3(C)C(N)=O)C2CC2)cc2cc(Br)cnc12 [Example 803]
22 | > 6.30 | C[C@]1(C(N)=O)COc2c1cc([C@@](O)(CNC(=O)c1cc(Cl)c3nn(C4CC4)cc3c1)C1(F)CC1)nc2-c1csc2c(F)cccc12 [Example 631]
23 | > 6.30 | COc1cc(C(=O)NC[C@](O)(c2cc3c(c(-c4csc5c(F)cccc45)n2)OC[C@]3(C)C(N)=O)C2(F)CC2)cc2cn(C(F)F)nc12 [Example 630]
24 | > 6.30 | COc1cc(C(=O)NC[C@](O)(c2cc3c(c(-c4cccc(Br)c4F)n2)OC[C@]3(C)C(N)=O)C(F)(F)F)cc2cn(C3CC3)nc12 [Example 960]
25 | > 6.30 | COc1cc(C(=O)NC[C@](O)(c2cc3c(c(-c4cc(Br)c(F)cc4F)n2)OC[C@]3(C)C(N)=O)C(F)(F)F)cc2cn(C3CC3)nc12 [Example 958]
26 | < 6.30 | COc1cc(C(=O)NC[C@](O)(c2cc3c(c(-c4cc(Cl)c(F)c(Cl)c4)n2)OC[C@]3(C)C(N)=O)C2CC2)cc2cc(Cl)c(C)nc12 [Example 681]
27 | < 6.30 | COc1cc(C(=O)NC[C@](O)(c2nc(-c3ccc4c(c3)OC(F)(F)O4)c3c(c2F)[C@](C)(C(N)=O)CO3)C2CC2)cc2cn(C3CC3)nc12 [Example 863]
28 | > 6.30 | COc1cc(C(=O)NC[C@](O)(c2cc3c(c(-c4ccc5c(c4)OC(F)(F)O5)n2)OC[C@]3(C)C(N)=O)C(F)(F)F)cc2cc(Br)c(C)nc12 [Example 770]

Row | pEC50 | Compound
29 | < 6.30 | COc1cc(C(=O)NC[C@](O)(c2cc3c(c(-c4cc(Cl)c(F)c(Cl)c4)n2)OC[C@]3(C)C(N)=O)C2CC2)cc2cn(C(F)F)nc12 [Example 677]
30 | > 6.30 | COc1cc(C(=O)NC[C@](O)(c2cc3c(c(-c4csc5c(F)cccc45)n2)OC[C@]3(C)C(N)=O)C2(F)CC2)cc2cn(C3CC3)nc12 [Example 632]
31 | > 6.30 | COc1cc(C(=O)NC[C@](O)(c2cc3c(c(-c4ccc(F)cc4)n2)OC[C@]3(C)C(N)=O)C2CC2)cc2cc(Br)c(C)nc12 [Example 771]
32 | > 6.30 | COc1cc(C(=O)NC[C@](O)(c2nc(-c3ccc4c(c3)OC(F)(F)O4)c3c(c2F)[C@@](C)(C(N)=O)CO3)C2CC2)cc2cc(Br)cnc12 [Example 869]
33 | > 6.30 | COc1cc(C(=O)NC[C@](O)(c2cc3c(c(-c4c(F)ccc(Cl)c4F)n2)OC[C@]3(C)C(N)=O)C(F)(F)F)cc2cn(C3CC3)nc12 [Example 963]
34 | < 6.30 | C[C@@]1(C(N)=O)COc2c(-c3ccc4c(c3)OC(F)(F)O4)nc([C@@](O)(CNC(=O)c3cc(Cl)c4nn(C5CC5)cc4c3)C3CC3)c(F)c21 [Example 864]
35 | > 6.30 | COc1cc(C(=O)NC[C@](O)(c2cc3c(c(-c4cc(Cl)c(F)c(Cl)c4)n2)OC[C@]3(C)C(N)=O)C2CC2)cc2cn(C3(F)CC3)nc12 [Example 678]
36 | > 6.30 | COc1cc(C(=O)NC[C@](O)(c2cc3c(c(-c4c(F)ccc(F)c4F)n2)OC[C@]3(C)C(N)=O)C(F)(F)F)cc2cn(C3CC3)nc12 [Example 964]
37 | < 6.30 | COc1cc(C(=O)NC[C@@](O)(c2cc3c(c(-c4cccc(Br)c4F)n2)OC[C@]3(C)C(N)=O)C(F)(F)F)cc2cn(C3CC3)nc12 [Example 959]
38 | < 6.30 | COc1cc(C(=O)NC[C@](O)(c2nc(-c3ccc4c(c3)OC(F)(F)O4)c3c(c2F)[C@](C)(C(N)=O)CO3)C2CC2)cc2cc(Br)cnc12 [Example 870]
39 | > 6.30 | COc1cc(C(=O)NC[C@@](O)(c2cc3c(c(-c4cc(Br)c(F)cc4F)n2)OC[C@]3(C)C(N)=O)C(F)(F)F)cc2cn(C3CC3)nc12 [Example 957]
40 | > 6.30 | COc1cc(C(=O)NC[C@](O)(c2cc3c(c(-c4ccc(F)cc4)n2)OC[C@]3(C)C(N)=O)C2(F)CC2)cc2cc(Br)c(C)nc12 [Example 772]
41 | > 6.30 | C[C@]1(C(N)=O)COc2c1cc([C@@](O)(CNC(=O)c1ccc3nn(C4CC4)cc3c1)C1CC1)nc2-c1cc(Cl)c(F)cc1F [Example 690]
42 | < 6.30 | COc1cc(C(=O)NC[C@](O)(c2nc(-c3cc(Cl)c(F)cc3F)c3c(c2F)[C@](C)(C(N)=O)CO3)C2CC2)cc2cn(C3CC3)nc12 [Example 868]
43 | > 6.30 | COc1cc(F)c(-c2nc([C@@](O)(CNC(=O)c3cc(OC)c4nn(C5CC5)cc4c3)C(F)(F)F)cc3c2OC[C@]3(C)C(N)=O)c(F)c1 [Example 962]
44 | > 6.30 | COc1cc(C(=O)NC[C@](O)(c2cc3c(c(-c4cc(Cl)c(F)c(Cl)c4)n2)OC[C@]3(C)C(N)=O)C2CC2)cc2cn(C3CC3)nc12 [Example 676]
45 | < 6.30 | COc1cc(C(=O)NC[C@](O)(c2nc(-c3ccc4c(c3)OC(F)(F)O4)c3c(c2F)[C@](C)(C(N)=O)CO3)C2CC2)cc2cn(C(F)F)nc12 [Example 866]
46 | < 6.30 | C[C@]1(C(N)=O)COc2c1cc([C@@](O)(CNC(=O)c1cc(Cl)c3nn(C4CC4)cc3c1)C1CC1)nc2-c1cc(Cl)c(F)c(Cl)c1 [Example 680]
47 | < 6.30 | COc1cc(C(=O)NC[C@](O)(c2nc(-c3ccc4c(c3)OC(F)(F)O4)c3c(c2F)[C@](C)(C(N)=O)CO3)C2CC2)cc2cc(Cl)c(C)nc12 [Example 867]
48 | < 6.30 | COc1cc(C(=O)NC[C@](O)(c2cc3c(c(-c4cc(Cl)c(F)c(Cl)c4)n2)OC[C@]3(C)C(N)=O)C2CC2)cc2cc(Br)cnc12 [Example 679]
